This is an account of results in PubChem BioAssay (NCI).

Test systems include SF-295 CNS; NCI-H23 lung; MDA-MB-435; UACC-257 melanoma; COLO 205 colon; M14 melanoma; MOLT-4 leukemia; T-47D breast; IGROV1 ovarian; HCT-15 colon; SK-OV-3 ovarian; SF-268 CNS; A498 renal; UACC-62 melanoma; NCI-H522 lung; ACHN renal; CAKI-1 renal; EKVX NSCLC; SK-MEL-2 melanoma.
Test in all cases: NCI-60 cell line screen, 48 h

Molecules are shown by their SMILES.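 Cells were grown in 96-well plates and exposed to each compound for 48 hours at five concentrations; endpoints were interpolated linearly between bracketing concentrations, or set to the highest concentration if not reached. TGI: total growth inhibition.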 Where a SMILES comes first, the peptide text is derived from it. The star is where a group is joined. Cbz = O=C(OCc1ccccc1)*

Turning to `N#Cc1sc2c(c1OC(=O)c1ccc(Cl)cc1Cl)c(=O)n(-c1ccccc1)c(=S)n2-c1ccccc1`, the TGI is 81.2 µM in the test with SF-295 CNS; 50.8 µM with NCI-H23 lung; 46.2 µM in the test on MDA-MB-435; over 100 µM with UACC-257 melanoma; 42.2 µM with COLO 205 colon; 36.6 µM in the test on M14 melanoma. In addition, the TGI in the test with MOLT-4 leukemia was 45.9 µM; in the test with T-47D breast, over 100 µM; in the test with IGROV1 ovarian, 38.6 µM; in the test on HCT-15 colon it was 59.5 µM; with SK-OV-3 ovarian it was over 100 µM; with SF-268 CNS it was over 100 µM. The TGI in the test with A498 renal was 61.2 µM; in the test with UACC-62 melanoma it was 40.4 µM; in the test on NCI-H522 lung it was 7.3 µM; with ACHN renal it was over 100 µM; with CAKI-1 renal, 54.5 µM; in the test with EKVX NSCLC, 65.1 µM.
Turning to `O=C1/C(=C/c2ccccc2)CCc2ccc([N+](=O)[O-])cc21`, the TGI with SF-295 CNS is over 100 µM; in the test on NCI-H23 lung it was over 100 µM; in the test on MDA-MB-435 it was over 100 µM; in the test with UACC-257 melanoma, over 100 µM; with COLO 205 colon it was over 100 µM; in the test with M14 melanoma, over 96.4 µM. In addition, the TGI in the test on MOLT-4 leukemia, with T-47D breast, in the test with IGROV1 ovarian, with HCT-15 colon, in the test on SK-OV-3 ovarian and with SF-268 CNS was over 100 µM throughout. For the same compound, the TGI in the test with A498 renal is over 100 µM; with UACC-62 melanoma, over 100 µM; in the test with ACHN renal, over 100 µM; in the test with CAKI-1 renal, over 100 µM; in the test with SK-MEL-2 melanoma it was 38.3 µM; with EKVX NSCLC it was over 100 µM.
Turning to `CN(C)c1ccc(C2CC(=O)CC(c3ccc(N(C)C)cc3)C23C(=O)NC(=S)NC3=O)cc1` (stereo not given), the TGI in the test with SF-295 CNS, in the test with NCI-H23 lung, with MDA-MB-435, in the test on UACC-257 melanoma, in the test on COLO 205 colon and with M14 melanoma was over 100 µM each time. Besides, the TGI in the test on MOLT-4 leukemia, in the test on T-47D breast, in the test on HCT-15 colon, in the test on SK-OV-3 ovarian, in the test on SF-268 CNS and with A498 renal was over 100 µM in each case. Moreover, the TGI with UACC-62 melanoma, in the test with ACHN renal, in the test on CAKI-1 renal, in the test with SK-MEL-2 melanoma and in the test with EKVX NSCLC was over 100 µM throughout.
Consider `CCCCc1nc(C)oc1C(C)C`, for which the TGI in the test with SF-295 CNS, in the test on NCI-H23 lung, in the test with MDA-MB-435, in the test on UACC-257 melanoma, in the test on COLO 205 colon and in the test on M14 melanoma was over 100 µM each time. Further, the TGI with MOLT-4 leukemia, with T-47D breast, in the test on IGROV1 ovarian, with HCT-15 colon, with SK-OV-3 ovarian and in the test on SF-268 CNS was over 100 µM each time. Moreover, the TGI in the test on A498 renal, in the test on UACC-62 melanoma, with NCI-H522 lung, in the test on ACHN renal, in the test with CAKI-1 renal and with EKVX NSCLC was over 100 µM throughout.
Regarding `COC(=O)C(CC(C)C)NC(=O)C(CCCN=C(N)N)NC(=O)OCc1ccccc1` (stereo not drawn) (Cbz-Arg-Leu-OMe; configuration not given here), the TGI in the test on SF-295 CNS, in the test with NCI-H23 lung, with MDA-MB-435, with COLO 205 colon, with M14 melanoma and in the test on MOLT-4 leukemia was over 100 µM each time. Also, the TGI in the test with T-47D breast, with IGROV1 ovarian, with HCT-15 colon, in the test on SK-OV-3 ovarian, in the test on SF-268 CNS and in the test on UACC-62 melanoma was over 100 µM throughout. Also, the TGI in the test on NCI-H522 lung, in the test with ACHN renal, with CAKI-1 renal and in the test with EKVX NSCLC was over 100 µM each time.
As to `CCOC(=O)[C@@H](NC(=O)OC(C)(C)C)[C@@H](O)C(=O)OCC`, the TGI in the test with SF-295 CNS, in the test with NCI-H23 lung, in the test with MDA-MB-435, in the test on UACC-257 melanoma, in the test on COLO 205 colon and in the test on M14 melanoma was over 100 µM each time. Besides, the TGI in the test on MOLT-4 leukemia, in the test on T-47D breast, with IGROV1 ovarian, in the test on HCT-15 colon, with SK-OV-3 ovarian and with SF-268 CNS was over 100 µM throughout. For the same compound, the TGI in the test on A498 renal, with UACC-62 melanoma, with ACHN renal, with CAKI-1 renal, in the test on SK-MEL-2 melanoma and in the test with EKVX NSCLC was over 100 µM throughout.
With `O=C(O)c1ccccc1/C=C1/Cc2ccc3c(c2C1=O)CCC3`, the TGI was over 100 µM in the test with SF-295 CNS; 96 µM with NCI-H23 lung; 74.9 µM in the test with MDA-MB-435; over 100 µM in the test on UACC-257 melanoma; 36.3 µM with COLO 205 colon; over 100 µM in the test with M14 melanoma. Besides, the TGI in the test with MOLT-4 leukemia, in the test on T-47D breast, with IGROV1 ovarian, with HCT-15 colon, in the test on SF-268 CNS and in the test on A498 renal was over 100 µM throughout. For the same compound, the TGI was over 100 µM in the test with UACC-62 melanoma; over 100 µM in the test with NCI-H522 lung; over 100 µM in the test with ACHN renal; over 100 µM in the test on CAKI-1 renal; 44.9 µM in the test on SK-MEL-2 melanoma; over 100 µM in the test on EKVX NSCLC.
Turning to `O=S(=O)(O)c1cc(S(=O)(=O)O)c2c(N=Nc3ccc(S(=O)(=O)O)c4ccccc34)c(O)ccc2c1`, the TGI with SF-295 CNS, in the test with NCI-H23 lung, with MDA-MB-435, with UACC-257 melanoma, in the test on COLO 205 colon and in the test with M14 melanoma was over 100 µM each time. The TGI in the test on MOLT-4 leukemia, in the test on T-47D breast, with IGROV1 ovarian, with HCT-15 colon, in the test with SK-OV-3 ovarian and with SF-268 CNS was over 100 µM in each case. Also, the TGI in the test on UACC-62 melanoma, with NCI-H522 lung, in the test on ACHN renal, with CAKI-1 renal, in the test on SK-MEL-2 melanoma and in the test with EKVX NSCLC was over 100 µM each time.
Take `Cc1cc(C#N)c(Nc2ccc(F)cc2[N+](=O)[O-])s1`: the TGI in the test on SF-295 CNS, in the test on NCI-H23 lung, in the test with MDA-MB-435, in the test with UACC-257 melanoma, in the test on COLO 205 colon and in the test with M14 melanoma was over 100 µM throughout. The TGI with MOLT-4 leukemia, in the test with T-47D breast, in the test on HCT-15 colon, in the test on SK-OV-3 ovarian, in the test on SF-268 CNS and in the test with A498 renal was over 100 µM throughout. The TGI in the test on UACC-62 melanoma, in the test with NCI-H522 lung, in the test on ACHN renal, with CAKI-1 renal and in the test on EKVX NSCLC was over 100 µM throughout.
Consider `Cc1ccc(N=C2OP(=O)(Nc3ccc(C)cc3)Oc3ccccc32)cc1` (stereo not given), for which the TGI with SF-295 CNS, in the test with NCI-H23 lung, in the test on MDA-MB-435, in the test with UACC-257 melanoma, in the test on COLO 205 colon and in the test on M14 melanoma was over 100 µM in each case. Moreover, the TGI with MOLT-4 leukemia, in the test on T-47D breast, in the test on IGROV1 ovarian, with HCT-15 colon, in the test with SK-OV-3 ovarian and with SF-268 CNS was over 100 µM each time. The TGI in the test with A498 renal, with UACC-62 melanoma, in the test on ACHN renal, in the test on CAKI-1 renal, with SK-MEL-2 melanoma and with EKVX NSCLC was over 100 µM in each case.
Consider `Cc1oc2nc(N(C)C)nc(NN)c2c1C`, for which the TGI in the test with SF-295 CNS, in the test with NCI-H23 lung, with MDA-MB-435, in the test on UACC-257 melanoma, in the test with COLO 205 colon and with M14 melanoma was over 100 µM in each case. The TGI in the test on MOLT-4 leukemia, with T-47D breast, with IGROV1 ovarian, with HCT-15 colon, in the test on SF-268 CNS and in the test on A498 renal was over 100 µM each time. Besides, the TGI in the test with UACC-62 melanoma, with NCI-H522 lung, in the test on ACHN renal, in the test with CAKI-1 renal, in the test with SK-MEL-2 melanoma and with EKVX NSCLC was over 100 µM throughout.
With `COc1ccc(N/N=C/C2=CC(C)(C)C(C#N)(C#N)C(O)=C2C#N)cc1`, the TGI with SF-295 CNS was over 100 µM; with NCI-H23 lung, over 100 µM; with MDA-MB-435, over 100 µM; in the test with UACC-257 melanoma, over 100 µM; in the test with COLO 205 colon, 49.8 µM; in the test on M14 melanoma, over 100 µM. Moreover, the TGI was over 100 µM with MOLT-4 leukemia; over 100 µM in the test on T-47D breast; over 100 µM in the test on IGROV1 ovarian; over 100 µM in the test on HCT-15 colon; over 100 µM with SF-268 CNS; 81 µM in the test on A498 renal. Moreover, the TGI with UACC-62 melanoma, in the test on NCI-H522 lung, in the test with ACHN renal, in the test with CAKI-1 renal, with SK-MEL-2 melanoma and in the test with EKVX NSCLC was over 100 µM in each case.
Regarding `CCOC(=O)C(NC(=O)c1ccccc1)(c1ccc(S(=O)(=O)Nc2onc(C)c2C)cc1)C(F)(F)F` (stereo not given), the TGI in the test with SF-295 CNS, with NCI-H23 lung, with MDA-MB-435, in the test on UACC-257 melanoma, with COLO 205 colon and in the test on M14 melanoma was over 100 µM throughout. For the same compound, the TGI with MOLT-4 leukemia, in the test with T-47D breast, with IGROV1 ovarian, in the test on HCT-15 colon, in the test with SK-OV-3 ovarian and with SF-268 CNS was over 100 µM each time. Besides, the TGI in the test on UACC-62 melanoma, with ACHN renal, with CAKI-1 renal, with SK-MEL-2 melanoma and in the test on EKVX NSCLC was over 100 µM throughout.
For the compound `COc1ccccc1/C=N/Nc1nnc2c3ccccc3c3ncccc3c2n1`, the TGI is 31.8 µM with SF-295 CNS; over 100 µM with NCI-H23 lung; over 100 µM in the test with MDA-MB-435; over 100 µM in the test with UACC-257 melanoma; over 100 µM with COLO 205 colon; over 100 µM in the test with M14 melanoma. In addition, the TGI in the test on MOLT-4 leukemia, in the test with T-47D breast, in the test with IGROV1 ovarian, in the test on HCT-15 colon, with SK-OV-3 ovarian and with SF-268 CNS was over 100 µM in each case. Moreover, the TGI with UACC-62 melanoma, in the test with NCI-H522 lung, in the test on ACHN renal, in the test with CAKI-1 renal, in the test with SK-MEL-2 melanoma and with EKVX NSCLC was over 100 µM throughout.
Consider `COc1ccc2c(=O)c3c([nH]c2c1)OCC3=O`, for which the TGI with SF-295 CNS, in the test with NCI-H23 lung, in the test with MDA-MB-435, in the test on UACC-257 melanoma, in the test on COLO 205 colon and in the test on M14 melanoma was over 100 µM throughout. In addition, the TGI with MOLT-4 leukemia, in the test on T-47D breast, in the test with IGROV1 ovarian, in the test with HCT-15 colon, in the test with SK-OV-3 ovarian and in the test on SF-268 CNS was over 100 µM in each case. For the same compound, the TGI in the test on A498 renal, in the test on UACC-62 melanoma, with ACHN renal, with CAKI-1 renal, in the test with SK-MEL-2 melanoma and in the test with EKVX NSCLC was over 100 µM in each case.
